Experimental data reported in patent US20160060260A1, “BROMODOMAIN INHIBITORS FOR TREATING DISEASE” (Board of Regents, The University of Texas System, priority 2014, published 2016).

Each molecule was assayed against T1, Recombinant human His-tagged Trim24-PHD-bromodomain (Homo sapiens, UniProt O15164) (assay: Trim24 AlphaScreen Assay). Conditions: 5 nM Trim24 protein, 15 nM biotinylated H3K23ac (1-33aa) peptide.
T1 construct: Recombinant human His-tagged Trim24-PHD-bromodomain (produced in-house); made in house
T1 sequence (O15164 824-1006 limits assumed): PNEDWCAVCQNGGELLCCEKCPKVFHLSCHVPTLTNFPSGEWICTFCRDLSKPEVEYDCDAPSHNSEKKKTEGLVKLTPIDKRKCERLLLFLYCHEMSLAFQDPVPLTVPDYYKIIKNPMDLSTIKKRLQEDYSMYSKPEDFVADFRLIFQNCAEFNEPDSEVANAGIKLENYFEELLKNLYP
Type: binding
Procedure: Recombinant human His-tagged Trim24-PHD-bromodomain (produced in-house), biotinylated H3K23ac (1-33aa) peptide (AnaSpec, Inc.), and test compound were added to a 384-well OptiPlate (Perkin Elmer) and incubated at room temperature for one hour. The assay buffer consisted of 50 mM Hepes, pH 7.5, 100 mM NaCl, and 0.12 mM Triton X-100.
Streptavidin donor beads and nickel chelate acceptor beads, both from a Perkin Elmer AlphaScreen Histidine Detection Kit, were then added to the Optiplate to a final concentration of 10 ug/mL each. Following a 2 hour incubation at room temperature, the microplate was read on an Envision Plate Reader (Perkin Elmer). Percent of control (POC) values were calculated from the following formula:
POC=[sample signal-average background signal]/[average maximum signal−average background signal]*100
The average maximum signal was obtained from wells containing all assay components except test compound. The average background signal pertained to wells with all assay components except Trim24 and test compound. IC50 values were calculated using a four-parameter logistic curve fit.

| SMILES | IC50 |
| --- | --- |
| COc1cc(OCC(C)C)cc(Oc2cc3c(cc2NS(=O)(=O)c2cn(C)c(C)n2)n(C)c(=O)n3C)c1 [Example 66, N-(6-(3-isobutoxy-5-methoxyphenoxy)-1,3-dimethyl-2-oxo-2,3-dihydro-1H-benzo[d]imidazol-5-yl)-1,2-dimethyl-1H-imidazole-4-sulfonamide] | 10 to 100 nM |
| Cn1c(=O)n(C)c2cc(Oc3cccc(OCC4CC4)c3)c(NS(=O)(=O)c3cccnc3)cc21 [Example 128, N-(6-(3-(cyclopropylmethoxy)phenoxy)-1,3-dimethyl-2-oxo-2,3-dihydro-1H-benzo[d]imidazol-5-yl)pyridine-3-sulfonamide] | 10 to 100 nM |
| CCOc1cc(OCC(C)C)cc(Oc2cc3c(cc2NS(=O)(=O)c2cn(C)cn2)n(C)c(=O)n3C)c1 [Example 225, N-(6-(3-ethoxy-5-isobutoxyphenoxy)-1,3-dimethyl-2-oxo-2,3-dihydro-1H-benzo[d]imidazol-5-yl)-1-methyl-1H-imidazole-4-sulfonamide] | 10 to 100 nM |
| CCOc1cccc(Oc2cc3c(cc2NS(=O)(=O)c2cn(C)c(C)n2)n(C)c(=O)n3C)c1 [Example 6, N-(6-(3-ethoxyphenoxy)-1,3-dimethyl-2-oxo-2,3-dihydro-1H-benzo[d]imidazol-5-yl)-1,2-dimethyl-1H-imidazole-4-sulfonamide] | 100 to 1000 nM |
| COc1cc(S(=O)(=O)Nc2cc3c(cc2Oc2cccc(OCC4CC4)c2)n(C)c(=O)n3C)ccc1O [Example 241, N-(6-(3-(cyclopropylmethoxy)phenoxy)-1,3-dimethyl-2-oxo-2,3-dihydro-1H-benzo[d]imidazol-5-yl)-4-hydroxy-3-methoxybenzenesulfonamide] | 10 to 100 nM |
| Cn1c(=O)n(C)c2cc(Oc3cccc(OCc4ccccc4)c3)c(NS(=O)(=O)c3nnc[nH]3)cc21 [Example 22, N-(6-(3-(benzyloxy)phenoxy)-1,3-dimethyl-2-oxo-2,3-dihydro-1H-benzo[d]imidazol-5-yl)-4H-1,2,4-triazole-3-sulfonamide] | 100 to 1000 nM |
| C=CCOc1cccc(Oc2cc3c(cc2NS(=O)(=O)c2cccc4ccccc24)n(C)c(=O)n3C)c1 [Example 142, N-(6-(3-(allyloxy)phenoxy)-1,3-dimethyl-2-oxo-2,3-dihydro-1H-benzo[d]imidazol-5-yl)naphthalene-1-sulfonamide] | 100 to 1000 nM |
| COc1ccc(S(=O)(=O)Nc2cc3c(cc2Oc2cc(OCCCCCCN(C)C)cc(OCC(F)(F)F)c2)n(C)c(=O)n3C)cc1OC [Example 205, N-(6-(3-((6-(dimethylamino)hexyl)oxy)-5-(2,2,2-trifluoroethoxy)phenoxy)-1,3-dimethyl-2-oxo-2,3-dihydro-1H-benzo[d]imidazol-5-yl)-3,4-dimethoxybenzenesulfonamide] | 1 to 10 nM |
| Cn1cnc(S(=O)(=O)Nc2cc3c(cc2Oc2cccc(OCC(C)(O)CN)c2)n(C)c(=O)n3C)c1 (stereo not drawn) [Example 234, N-{6-[3-(3-amino-2-hydroxy-2-methylpropoxy)phenoxy]-1,3-dimethyl-2-oxo-2,3-dihydro-1H-1,3-benzodiazol-5-yl}-1-methyl-1H-imidazole-4-sulfonamide] | > 1000 nM |
| COCC(C)(O)COc1cccc(Oc2cc3c(cc2NS(=O)(=O)c2cn(C)cn2)n(C)c(=O)n3C)c1 (stereo not drawn) [Example 233, N-{6-[3-(2-hydroxy-3-methoxy-2-methylpropoxy)phenoxy]-1,3-dimethyl-2-oxo-2,3-dihydro-1H-1,3-benzodiazol-5-yl}-1-methyl-1H-imidazole-4-sulfonamide] | 100 to 1000 nM |
| CC(CO)COc1cccc(Oc2cc3c(cc2NS(=O)(=O)c2cn(C)cn2)n(C)c(=O)n3C)c1 (stereo not drawn) [Example 230, N-(6-(3-(3-hydroxy-2-methylpropoxy)phenoxy)-1,3-dimethyl-2-oxo-2,3-dihydro-1H-benzo[d]imidazol-5-yl)-1-methyl-1H-imidazole-4-sulfonamide] | 100 to 1000 nM |
| CCCOc1cc(OCCCCN2CC(O)C2)cc(Oc2cc3c(cc2NS(=O)(=O)c2ccc(OC)c(OC)c2)n(C)c(=O)n3C)c1 [Example 248, N-(6-{3-[4-(3-hydroxyazetidin-1-yl)butoxy]-5-propoxyphenoxy}-1,3-dimethyl-2-oxo-2,3-dihydro-1H-1,3-benzodiazol-5-yl)-3,4-dimethoxybenzene-1-sulfonamide] | 10 to 100 nM |
| Cc1n[nH]c(C)c1S(=O)(=O)Nc1cc2c(cc1Oc1cccc(OCc3ccccc3)c1)n(C)c(=O)n2C [Example 2, N-(6-(3-(benzyloxy)phenoxy)-1,3-dimethyl-2-oxo-2,3-dihydro-1H-benzo[d]imidazol-5-yl)-3,5-dimethyl-1H-pyrazole-4-sulfonamide] | 100 to 1000 nM |
| C=CCN(c1cc2c(cc1Oc1cccc(OCCC)c1)n(C)c(=O)n2C)S(=O)(=O)c1cn(CC=C)cn1 [Example 244, N,1-diallyl-N-(1,3-dimethyl-2-oxo-6-(3-propoxyphenoxy)-2,3-dihydro-1H-benzo[d]imidazol-5-yl)-1H-imidazole-4-sulfonamide] | 100 to 1000 nM |
| Cc1cc(OCC(C)C)cc(Oc2cc3c(cc2NS(=O)(=O)c2cn(C)cn2)n(C)c(=O)n3C)c1 [Example 222, N-(6-(3-isobutoxy-5-methylphenoxy)-1,3-dimethyl-2-oxo-2,3-dihydro-1H-benzo[d]imidazol-5-yl)-1-methyl-1H-imidazole-4-sulfonamide] | 10 to 100 nM |
| COCCOc1cccc(Oc2cc3c(cc2NS(=O)(=O)c2cn(C)c(C)n2)n(C)c(=O)n3C)c1 [Example 53, N-(6-(3-(2-methoxyethoxy)phenoxy)-1,3-dimethyl-2-oxo-2,3-dihydro-1H-benzo[d]imidazol-5-yl)-1,2-dimethyl-1H-imidazole-4-sulfonamide] | 100 to 1000 nM |
| Cn1c(=O)n(C)c2cc(Oc3cccc(OCc4ccccc4)c3)c(NS(=O)(=O)c3cccc(F)c3)cc21 [Example 43, N-(6-(3-(benzyloxy)phenoxy)-1,3-dimethyl-2-oxo-2,3-dihydro-1H-benzo[d]imidazol-5-yl)-3-fluorobenzenesulfonamide] | 100 to 1000 nM |
| Cn1cc(S(=O)(=O)Nc2cc3c(cc2Oc2cccc(OCc4ccccc4)c2)n(C)c(=O)n3C)cn1 [Example 25, N-(6-(3-(benzyloxy)phenoxy)-1,3-dimethyl-2-oxo-2,3-dihydro-1H-benzo[d]imidazol-5-yl)-1-methyl-1H-pyrazole-4-sulfonamide] | 100 to 1000 nM |

Other lines, results leading:

| IC50 | SMILES |
| --- | --- |
| 10 to 100 nM | CCCOc1cc(OCCCCCCN)cc(Oc2cc3c(cc2NS(=O)(=O)C2CC2)n(C)c(=O)n3C)c1 [Example 218, N-(6-(3-((6-aminohexyl)oxy)-5-propoxyphenoxy)-1,3-dimethyl-2-oxo-2,3-dihydro-1H-benzo[d]imidazol-5-yl)cyclopropanesulfonamide] |
| 100 to 1000 nM | CCCOc1cc(OCCCOC)cc(Oc2cc3c(cc2NS(=O)(=O)c2ccc(N(C)C)cc2)n(C)c(=O)n3C)c1 [Example 177, 4-(dimethylamino)-N-(6-(3-(3-methoxypropoxy)-5-propoxyphenoxy)-1,3-dimethyl-2-oxo-2,3-dihydro-benzo[d]imidazol-5-yl)benzenesulfonamide] |
| 10 to 100 nM | CCCOc1cccc(Oc2cc3c(cc2NS(=O)(=O)c2cnn(C)c2)n(C)c(=O)n3C)c1 [Example 75, N-(1,3-dimethyl-2-oxo-6-(3-propoxyphenoxy)-2,3-dihydro-1H-benzo[d]imidazol-5-yl)-1-methyl-1H-pyrazole-4-sulfonamide] |
| 10 to 100 nM | CCCOc1cc(OCC2CC2)cc(Oc2cc3c(cc2NS(=O)(=O)c2cn(C)cn2)n(C)c(=O)n3C)c1 [Example 126, N-(6-(3-(cyclopropylmethoxy)-5-propoxyphenoxy)-1,3-dimethyl-2-oxo-2,3-dihydro-1H-benzo[d]imidazol-5-yl)-1-methyl-1H-imidazole-4-sulfonamide] |
| 100 to 1000 nM | CCCOc1cc(OCCCOC)cc(Oc2cc3c(cc2NS(=O)(=O)c2ccccc2)n(C)c(=O)n3C)c1 [Example 163, N-(6-(3-(3-methoxypropoxy)-5-propoxyphenoxy)-1,3-dimethyl-2-oxo-2,3-dihydro-1H-benzo[d]imidazol-5-yl)benzenesulfonamide] |
| 10 to 100 nM | CCCOc1cccc(Oc2cc3c(cc2NS(=O)(=O)c2ccccn2)n(C)c(=O)n3C)c1 [Example 168, N-(1,3-dimethyl-2-oxo-6-(3-propoxyphenoxy)-2,3-dihydro-1H-benzo[d]imidazol-5-yl)pyridine-2-sulfonamide] |
| 100 to 1000 nM | CCCOc1cc(OCCCOC)cc(Oc2cc3c(cc2NS(=O)(=O)c2ccc4c(c2)COC4)n(C)c(=O)n3C)c1 [Example 162, N-(6-(3-(3-methoxypropoxy)-5-propoxyphenoxy)-1,3-dimethyl-2-oxo-2,3-dihydro-1H-benzo[d]imidazol-5-yl)-1,3-dihydroisobenzofuran-5-sulfonamide] |
| 100 to 1000 nM | CCCOc1cc(OCCCOC)cc(Oc2cc3c(cc2NS(=O)(=O)C2CC2)n(C)c(=O)n3C)c1 [Example 150, N-(6-(3-(3-methoxypropoxy)-5-propoxyphenoxy)-1,3-dimethyl-2-oxo-2,3-dihydro-1H-benzo[d]imidazol-5-yl)cyclopropanesulfonamide] |
| 100 to 1000 nM | CCCOc1cc(OCCCOC)cc(Oc2cc3c(cc2NS(=O)(=O)c2cccc(F)c2)n(C)c(=O)n3C)c1 [Example 156, 3-fluoro-N-(6-(3-(3-methoxypropoxy)-5-propoxyphenoxy)-1,3-dimethyl-2-oxo-2,3-dihydro-1H-benzo[d]imidazol-5-yl)benzenesulfonamide] |
